Source: patent US20100152188A1, “Novel Heterocyclic Compounds” (priority 2005, published 2010)
Like-named read-outs stand apart in the source and are kept apart here.

Assays:
NCIH460 = assay: Anti-cancer screen (MTT), NCIH460; assay type: cell-based; conditions: Homo sapiens, NCI-H460, 48 hours with compound, tested at 0.01-100 µM
Procedure, shortened: (§1)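 Seed cells at 5000 per well and let them attach for 24 h; add compound at five final concentrations from 0.01 to 100 µM; incubate 48 h; add MTT for 3 h, dissolve formazan in DMSO and read at 570 nm. GI50, TGI and LC50 follow from percent growth relative to T0 and untreated wells.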

HCT116 = assay: Anti-cancer screen (MTT), HCT116; assay type: cell-based; conditions: Homo sapiens, HCT-116, 48 hours with compound, tested at 0.01-100 µM
Procedure, shortened: as §1

MDAMB-231/U 251 = assay: Anti-cancer screen (MTT), MDAMB-231/U 251; assay type: cell-based; conditions: for CC50: read-out: MDAMB-231/U 251 LC50
Procedure, shortened: as §1

[1] = test system: NCIH460, HCT116, MDAMB-231/U 251; assay: Anti-cancer screen, mean GI50 over the cell lines; assay type: cell-based; conditions: in µM
Procedure, shortened: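 Growth was scored by MTT absorbance at 570 nm relative to control wells and a pre-treatment T0 reading. Compounds were tested at five final concentrations (0.01–100 µM, triplicate) for 48 h on NCIH460, HCT116 and U251 cells, each plated at 5000 cells/well 24 h before dosing.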

HDAC = HDAC inhibition; assay type: biochemical; conditions: for HDAC Inhibition 1 μM: compound at 1 μM; for HDAC Inhibition 10 μM: compound at 10 μM
[2] = 48 hours with compound, MTT, tested at 0.01-100 µM

Compound	GI50 (NCIH460)	IC (TGI) (NCIH460)	LC50 (NCIH460)	GI50 (HCT116)	IC (TGI) (HCT116)	LC50 (concentration giving 50% net cell kill relative to T0) (HCT116)	CC50 (MDAMB-231/U 251; 48 h)	GI50 (MDAMB-231/U 251; [2])	IC (TGI) (MDAMB-231/U 251; [2])	Mean GI50 [1]	HDAC Inhibition 1 μM (HDAC)	HDAC Inhibition 10 μM (HDAC)	CC50 (HCT116; read-out: HCT116 LC50)	CC50 (MDAMB-231/U 251; [2])	IC50 (HDAC)
O=C(NCc1ccc(C(=O)Nc2nnc(C(F)(F)F)s2)cc1)OCc1nccs1 [Example 64, 1,3-Thiazol-2-ylmethyl[4-({[5-(trifluoromethyl)-1,3,4-thiadiazol-2-yl]amino}carbonyl)benzyl]carbamate]	> 100 µM	> 100 µM	> 100 µM	> 100 µM	> 100 µM	> 100 µM	> 100 µM	> 100 µM	> 100 µM	>100	4.95	7.43	–	–	–
O=C(CCCCCNC(=O)Cc1csc(NC(=O)OCc2nc3ccccc3s2)n1)NO [Example 90, 1,3-Benzothiazol-2-ylmethyl[4-(2-{[6-(hydroxyamino)-6-oxohexyl]amino}-2-oxoethyl)-1,3-thiazol-2-yl]carbamate]	38 µM	98 µM	> 100 µM	38 µM	65 µM	> 100 µM	98 µM	0.06 µM	48 µM	25.35	61.63	98.85	–	–	–
O=C(Cc1csc(NC(=O)OCc2cc(Br)cs2)n1)NO [Example 7, (4-Bromo-2-thienyl)methyl{4-[2-(hydroxyamino)-2-oxoethyl]-1,3-thiazol-2-yl}carbamate]	10 µM	70 µM	> 100 µM	25 µM	80 µM	–	–	15 µM	74 µM	16.7	7.07	46.41	> 100 µM	> 100 µM	–
O=C(Cc1csc(NC(=O)OCC2COc3ccccc3O2)n1)NO (stereo not drawn) [Example 5, 2,3-Dihydro-1,4-benzodioxin-2-ylmethyl{4-[2-(hydroxyamino)-2-oxoethyl]1,3-thiazol-2-yl}carbamate]	18 µM	76 µM	> 100 µM	40 µM	80 µM	> 100 µM	> 100 µM	6 µM	78 µM	21.3	0.65	29.29	–	–	–
O=C(NCc1ccc(C(=O)Nc2nnc(C3CC3)s2)cc1)OCc1nc2ccccc2s1 [Example 67, 1,3-Benzothiazol-2-ylmethyl(4-{[(5-cyclopropyl-1,3,4-thiadiazol-2-yl)amino]carbonyl}benzyl)carbamate]	3.5 µM	9.5 µM	> 100 µM	1.8 µM	67 µM	> 100 µM	> 100 µM	3.5 µM	9 µM	2.93	12.17	11.64	–	–	–
CN(O)C(=O)c1ccc(CNC(=O)OCc2c(F)cc(F)cc2F)cc1 [Example 45, 2,4,6-Trifluorobenzyl(4-{[hydroxy(methyl)amino]carbonyl}benzyl)carbamate]	90 µM	> 100 µM	> 100 µM	> 100 µM	> 100 µM	> 100 µM	> 100 µM	2.5 µM	65 µM	>100	4.28	−0.76	–	–	–
O=C(NCc1ccc(C(=O)NO)cc1)OCn1nnc2ccccc21 [Example 34, 1H-1,2,3-Benzotriazol-1-ylmethyl{4-[(hydroxyamino)carbonyl]benzyl}carbamate]	58 µM	> 100 µM	> 100 µM	60 µM	> 100 µM	> 100 µM	> 100 µM	30 µM	> 100 µM	49.3	62.1	98.6	–	–	–
O=C(Nc1nc(CC(=O)N2CCOCC2)cs1)OCc1cccnc1 [Example 10, pyridin-3-ylmethyl[4-(2-morpholin-4-yl-2-oxoethyl)-1,3-thiazol-2-yl]carbamate]	55 µM	> 100 µM	> 100 µM	> 100 µM	> 100 µM	> 100 µM	> 100 µM	0.4 µM	27 µM	26.7	−9.85	0.14	–	–	–
Nc1ccccc1NC(=O)Cc1csc(NC(=O)OCc2cccnc2)n1 [Example 18, Pyridin-3-ylmethyl(4-{2-[(2-aminophenyl)amino]-2-oxoethyl}-1,3-thiazol-2-yl)carbamate]	100 µM	> 100 µM	> 100 µM	> 100 µM	> 100 µM	> 100 µM	> 100 µM	12 µM	> 100 µM	>100	2.19	7.99	–	–	–
O=C(NCc1ccc(C(=O)Nc2nnc(C(F)(F)F)s2)cc1)OCc1nc2ccccc2s1 [Example 58, 1,3-Benzothiazol-2-ylmethyl[4-({[5-(trifluoromethyl)-1,3,4-thiadiazol-2-yl]amino}carbonyl)benzyl]carbamate]	2 µM	7 µM	> 100 µM	20 µM	> 100 µM	> 100 µM	83 µM	0.04 µM	0.8 µM	7.3	0.4	−11.54	–	–	–
O=C(NCc1ccc(C(=O)NO)cc1)OCc1cccs1 [Example 28, 2-Thienylmethyl{4-[(hydroxyamino)carbonyl]benzyl}carbamate]	30 µM	51 µM	> 100 µM	5 µM	15 µM	62 µM	70 µM	5 µM	30 µM	13	50.8	63.3	–	–	0.123 µM
CC(=O)N(O)C(=O)Cc1csc(NC(=O)OCc2cccs2)n1 [Example 80, 2-Thienylmethyl(4-{2-[acetyl(hydroxy)amino]-2-oxoethyl}-1,3-thiazol-2-yl)carbamate]	53 µM	> 100 µM	> 100 µM	> 100 µM	> 100 µM	> 100 µM	> 100 µM	35 µM	96 µM	>100	–	5.28	–	–	–
COC(=O)ONC(=O)c1ccc(CNC(=O)OCc2cccs2)cc1 [Example 84, 2-Thienylmethyl[4-({[(methoxycarbonyl)oxy]amino}carbonyl)benzyl]carbamate]	81 µM	> 100 µM	> 100 µM	> 100 µM	> 100 µM	> 100 µM	> 100 µM	54 µM	> 100 µM	>100	20.20	61.74	–	–	–
O=C(Cc1csc(NC(=O)OCc2ccncc2)n1)NOCc1ccccc1 [Example 25, Pyridin-4-ylmethyl(4-{2-[(benzyloxy)amino]-2-oxoethyl}-1,3-thiazol-2-yl)carbamate]	92 µM	> 100 µM	> 100 µM	65 µM	> 100 µM	> 100 µM	> 100 µM	85 µM	> 100 µM	80.67	−0.29	6.62	–	–	–
CC(=O)N(O)C(=O)Cc1csc(NC(=O)OCc2ccsc2)n1 [Example 77, 3-thienylmethyl(4-{2-[acetyl(hydroxy)amino]-2-oxoethyl}-1,3-thiazol-2-yl)carbamate]	53 µM	> 100 µM	> 100 µM	60 µM	> 100 µM	> 100 µM	> 100 µM	6 µM	65 µM	39.7	7.7	14.8	–	–	–
O=C(Cc1csc(NC(=O)OCc2ccsc2)n1)NO [Example 3, 3-Thienylmethyl{4-[2-(hydroxyamino)-2-oxoethyl]-1,3-thiazol-2-yl}carbamate]	30 µM	> 100 µM	> 100 µM	> 100 µM	> 100 µM	> 100 µM	> 100 µM	32 µM	> 100 µM	31	−4.03	22.89	–	–	–
